In one experiment the test system is HCV Replicon 1b-Con1. Kind of experiment: HCV replicon GT-1b luciferase assay. It is filed as cell-based. The following applies: Hepatitis C virus, GT1B, read-out: HCV Replicon 1b-Con1 EC50. From the text: Cell Culture—The reporter cell line Huh-luc/neo-ET was obtained from Dr. Ralf Bartenschlager (Department of Molecular Virology, Hygiene Institute, University of Heidelberg, Germany) by ImQuest BioSciences through a specific licensing agreement. This cell line harbors the persistently replicating I389luc-ubi-neo/NS3-3′/ET replicon containing the firefly luciferase gene-ubiquitin-neomycin phosphotransferase fusion protein and EMCV IRES driven NS3-5B HCV coding sequences containing the ET tissue culture adaptive mutations (E1202G, Tl2081, and K1846T). A stock culture of the Huh-luc/neo-ET was expanded by culture in DMEM supplemented with I 0% FCS, 2 mM glutamine, penicillin ([…])/streptomycin (100 μg/mL) and I× nonessential amino acids plus 1 mg/mL G418. The cells were split 1:4 and cultured for two passages in the same media plus 250 μg/mL G418. […] 5% C02 then anti-HCV activity was measured by luciferase endpoint. […]
Measurement of Virus Replication-HCV replication from the replicon assay system was measured by luciferase activity using the britelite plus luminescence reporter gene kit according to the manufacturer's instructions (Perkin Elmer, Shelton, Conn.). […] The well contents were transferred to a white 96-well plate and luminescence was measured within 15 minutes using the Wallac 1450Microbeta Trilux liquid scintillation counter. […]
(Replicon systems follow genome replication, usually without infectious particles.)

A further experiment concerns HCV Replicon 1a-H77. Description: HCV replicon GT-1a luciferase assay. The following applies: Hepatitis C virus, GT1A, GT-1a H77 replicon. The format is cell-based.
Experiment [1] has as its target NS5B-621 from HCV GT-1b Con-1 (Hepatitis C virus genotype 1b, UniProt Q9WMX2). Kind of experiment: NS5B RNA-dependent RNA polymerase inhibition assay. It is filed as biochemical. The settings on record: 1 μM NTP substrates including either [32P]-CTP or [32P]-UTP, columns not distinguished. How it is done:
Compounds were assayed for inhibition of NS5B-621 from HCV GT-1b Con-1. Reactions included purified recombinant enzyme, 1 u/μL negative-strand HCV IRES RNA template, and 1 μM NTP substrates including either [^32P]-CTP or [^32P]-UTP. Assay plates were incubated at 27° C. for 1 hour before quench. [^32P] incorporation into macromolecular product was assessed by filter binding.

For orientation: EC50 means the midpoint of the concentration-response curve. On to `CC(C)OC(=O)[C@H](C)N[P@](=O)(OC[C@H]1O[C@@H](n2ccc(=O)[nH]c2=O)[C@@](O)(CF)[C@@H]1O)Oc1ccccc1` [DRIVE-0087], for which the figures for the EC50 in the experiment with HCV Replicon 1b-Con1 and with HCV Replicon 1a-H77 were 750 nM and 540 nM, respectively.
In general, IC50 refers to the midpoint of a concentration-inhibition curve. A high value points to weaker potency in that assay. Turning to `O=c1ccn([C@@H]2O[C@H](COP(=O)(O)OP(=O)(O)OP(=O)(O)O)[C@@H](O)[C@]2(O)CF)c(=O)[nH]1` [DRIVE-0060], the 50% inhibitory concentration (IC50) is 1000 nM in experiment [1] (first IC50 column) and 13400 nM in experiment [1] (second IC50 column).

Source of the values: US20190085013A1, “NUCLEOTIDE AND NUCLEOSIDE THERAPEUTIC COMPOSITIONS AND USES RELATED THERETO” (EMORY UNIVERSITY, priority 2016, published 2019).
